Earlier results in patent US20240082270A1 (priority 2021, published 2024).
Read-outs that look alike come from different tables or passages of the source.

Experiments:
CB1R = CB1R (Homo sapiens, UniProt P21554)
SARS-CoV-2 [1] = settings: lung epithelial cells
human CBR = settings: rather non-selectively
[2] = stress and anxiety
[3] = emulsified, small dispersed molecules
5-HT1A receptor = 5-HT1A receptor (Homo sapiens, UniProt P08908)
[4] = pharmaceutical CBD, up to 1500 mg/day for 6 weeks
[5] = after oral CBD in rats
SARS-CoV-2 [6] = settings: cohort of human patients previously taking CBD
mouse bladder = settings: induced by acetylcholine
[7] = Lennox-Gastaut and Dravet syndrome
[8] = system: pseudovirus expressing the SARS-CoV-2 spike protein
SARS-CoV-2 spike protein [9] = target: T1, SARS-CoV-2 spike protein (Severe acute respiratory syndrome coronavirus 2, UniProt P0DTC2); settings: allosteric as well as orthosteric ligands
[10] = animal studies
[11] = rat, in vivo
[12] = system: methicillin resistant Staphylococcus aureus (MRSA)
[13] = mouse, in vivo
[14] = not given; remark: listed apart in the source
[15] = mouse, in vivo; remark: listed apart in the source
[16] = dog; for adverse effects monitored by blood testing: 2 weeks of high twice daily dosing
[17] = system: store-operated calcium (Ca2+) entry (SOCE); settings: human T lymphocytes
[18] = target: SARS-CoV-2 main proteases (Severe acute respiratory syndrome coronavirus 2, UniProt P0DTD1)
SARS-CoV-2 spike protein [19] = target: T1, SARS-CoV-2 spike protein
melanoma = settings: inhibition of E2F1 transcription
mast cells = settings: higher concentration
[20] = after 30 min ingestion
[21] = if stored properly
[22] = not given; remark: listed apart in the source
protein kinase B = settings: oxidative muscles
CB2R [23] = target: CB2R (Homo sapiens, UniProt P34972)
[24] = target: acylglycerol lipase, MAG1 (Homo sapiens, UniProt Q99685); settings: reversible mechanism
mice = settings: inhaled from ambient air
[25] = chronic or single dose, versus control group without piperine
[26] = not given; remark: listed apart in the source
CB2R [27] = target: T2, CB2R (Mus musculus, UniProt P47936); settings: oral, <5 mg-kg^−1
T2 construct: host or cells: wild-type mice, in vivo (oral dosing)

[28] = skin models

Chain of CB1R (P21554 whole entry): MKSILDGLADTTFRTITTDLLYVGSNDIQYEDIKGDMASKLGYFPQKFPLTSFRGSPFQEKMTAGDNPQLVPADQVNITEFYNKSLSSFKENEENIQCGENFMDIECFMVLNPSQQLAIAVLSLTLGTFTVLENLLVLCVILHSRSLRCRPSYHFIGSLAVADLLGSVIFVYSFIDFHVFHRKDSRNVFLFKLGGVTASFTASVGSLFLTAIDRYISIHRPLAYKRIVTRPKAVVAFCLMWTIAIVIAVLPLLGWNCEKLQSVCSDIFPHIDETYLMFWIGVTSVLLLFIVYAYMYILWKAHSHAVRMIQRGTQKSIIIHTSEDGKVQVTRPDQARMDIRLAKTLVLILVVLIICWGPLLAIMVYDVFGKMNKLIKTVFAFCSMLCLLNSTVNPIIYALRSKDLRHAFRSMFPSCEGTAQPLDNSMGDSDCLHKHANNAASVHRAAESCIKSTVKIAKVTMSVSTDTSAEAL
Chain of CB2R (Homo sapiens, UniProt P34972) (P34972 whole entry): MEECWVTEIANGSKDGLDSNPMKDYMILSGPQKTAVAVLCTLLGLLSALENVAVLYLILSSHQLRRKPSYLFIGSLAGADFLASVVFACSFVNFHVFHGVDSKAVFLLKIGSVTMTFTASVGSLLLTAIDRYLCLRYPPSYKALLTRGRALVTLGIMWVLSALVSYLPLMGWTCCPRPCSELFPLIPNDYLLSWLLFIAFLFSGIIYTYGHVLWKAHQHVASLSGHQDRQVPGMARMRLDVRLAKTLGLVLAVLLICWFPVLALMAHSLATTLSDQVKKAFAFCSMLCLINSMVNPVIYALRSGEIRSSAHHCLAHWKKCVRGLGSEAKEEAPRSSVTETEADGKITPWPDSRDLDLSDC
Chain of acylglycerol lipase, MAG1 (Q99685 whole entry): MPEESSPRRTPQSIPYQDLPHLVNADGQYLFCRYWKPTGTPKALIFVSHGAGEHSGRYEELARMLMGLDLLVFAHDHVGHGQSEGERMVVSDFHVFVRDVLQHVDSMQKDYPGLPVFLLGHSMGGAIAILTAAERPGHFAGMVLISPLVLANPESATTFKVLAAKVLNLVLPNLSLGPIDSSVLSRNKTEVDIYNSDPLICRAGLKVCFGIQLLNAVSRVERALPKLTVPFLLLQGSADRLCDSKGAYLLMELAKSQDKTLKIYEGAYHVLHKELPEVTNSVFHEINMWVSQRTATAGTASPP
Chain of 5-HT1A receptor (P08908 whole entry): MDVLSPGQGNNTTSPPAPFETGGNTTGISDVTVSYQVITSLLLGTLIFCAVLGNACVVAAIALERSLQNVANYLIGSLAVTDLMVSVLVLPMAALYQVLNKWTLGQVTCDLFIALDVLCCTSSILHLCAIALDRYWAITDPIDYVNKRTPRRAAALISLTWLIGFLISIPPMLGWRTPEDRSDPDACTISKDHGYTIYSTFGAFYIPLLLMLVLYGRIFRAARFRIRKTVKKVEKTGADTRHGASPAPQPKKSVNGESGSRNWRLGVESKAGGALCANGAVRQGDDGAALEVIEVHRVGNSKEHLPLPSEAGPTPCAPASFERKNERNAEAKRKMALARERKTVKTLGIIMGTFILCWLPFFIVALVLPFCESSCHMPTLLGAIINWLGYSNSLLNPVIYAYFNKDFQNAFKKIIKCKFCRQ
T2 sequence (P47936 whole entry): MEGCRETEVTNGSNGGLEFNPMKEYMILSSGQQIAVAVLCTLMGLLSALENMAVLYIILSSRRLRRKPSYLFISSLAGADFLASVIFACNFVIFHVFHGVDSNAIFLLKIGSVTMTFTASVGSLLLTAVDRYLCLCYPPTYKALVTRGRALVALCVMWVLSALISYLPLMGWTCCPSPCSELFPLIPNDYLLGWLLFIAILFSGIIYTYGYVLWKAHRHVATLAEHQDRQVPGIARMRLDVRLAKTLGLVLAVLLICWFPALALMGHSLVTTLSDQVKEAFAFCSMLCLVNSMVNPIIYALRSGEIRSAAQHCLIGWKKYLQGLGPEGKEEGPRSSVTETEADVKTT

For `CCCCC/C=C\C/C=C\C/C=C\C/C=C\CCCCOC(CO)CO` [2-AGE, 2-arachidonyl glyceryl ether], the Ki (CB1R; read-out: Ki) is given as 0.0212 µM.

For `C=C(C)[C@@H]1CCC(CO)=C[C@H]1c1c(O)cc(CCCCC)cc1O` [7-OH-CBD], the SARS-CoV-2 replication (SARS-CoV-2 [1]) is listed as “block SARS-CoV-2 replication”.

In the case of `Oc1cc(O)c2c(c1)O[C@H](c1cc(O)c(O)c(O)c1)[C@H](O)C2` [(−)-epigallocatechin], the “concentrations at which binding to human CBR was shown” value (human CBR) is listed as “high μM concentrations”.

For `CCCCCc1cc(O)c2c(c1)OC(C)(CCC=C(C)C)C=C2` (centres unmarked) [CBC, cannabichromene], the “potency relative to CBD” value [2] is given as “up to 10 times”.

For `C=C(C)[C@@H]1CCC(C)=C[C@H]1c1c(O)cc(CCCCC)cc1O` [CBD, Cannabidiol], the “degradation, average values” (effect of light, after 30 days) is listed as “up to 15%”, the “degradation, average values” (stored at 37° C. for 30 days) is listed as “up to 20%” and the sublingually absorbed [3] is listed as “up to 35%”. The “concentration that synergistically enhances other 5-HT1A receptor agonists” value (5-HT1A receptor) was 100 nM, the “concentrations at which the 5-HT1A receptor is activated” value (5-HT1A receptor) was “above 10 μM” and the physical withdrawal symptoms [4] was “No physical withdrawal symptoms were observed”. For the same compound, the “time of peak brain concentration” value [5] was 6 h, the “time of peak serum level” value [5] was 1 h and the SARS-CoV-2 replication (SARS-CoV-2 [1]) was “block SARS-CoV-2 replication”. For the same compound, the SARS-CoV-2 infection incidence (SARS-CoV-2 [6]) was “significantly lower”, the “ranked potency of detrusor contraction inhibition” value (mouse bladder) was “CBG=THCV>CBD>CBDV, but not CBC” and the “reduction in seizures rate” value [7] was 50%.

In the case of `C=C(C)[C@@H]1CCC(C)=C[C@H]1c1c(O)cc(CCCCC)c(C(=O)O)c1O` [CBDA], the “infection of human epithelial cells by pseudovirus” value [8] is given as “prevented infection”, the “entry of live SARS-CoV-2 into cells” value (live SARS-CoV-2) is given as “prevented entry” and the “affinity for the spike protein” value (SARS-CoV-2 spike protein [9]) is given as “micromolar affinity”.

In the case of `C=C(C)[C@@H]1CCC(C)=C[C@H]1c1c(O)cc(CCC)cc1O` [CBDV, Cannabidivarin], the “time of peak brain concentrations” value [10] is listed as 30 min and the “ranked potency of detrusor contraction inhibition” value (mouse bladder) is listed as “CBG=THCV>CBD>CBDV, but not CBC”.

For `C=C(C)[C@@H]1CCC(C)=C[C@H]1c1c(O)cc(CCC)c(C(=O)O)c1O` [CBDVA], the “time of peak brain concentrations” value [10] is listed as 15 min.

In the case of `CCCCCc1cc(O)c(C/C=C(\C)CCC=C(C)C)c(O)c1` [CBG, cannabigerol], the “time of peak brain concentrations” value [10] is given as 120 min, the appetite [11] is given as “increased appetite” and the “efficacy in murine systemic infection model” value ([12]; MRSA) is given as “demonstrate in vivo efficacy”. For the same compound, the MRSA biofilm formation ([12]; mouse, in vivo) was “represses MRSA biofilm formation”, the rotarod performance [13] was “significantly recovered their rotarod performance” and the bioavailability ([14]; oral ingestion) was 13-19%. For the same compound, the bioavailability ([14]; sublingual administration) was 13-56%, the bioavailability ([14]; topical applications) was 5-10% and the “effect on hyperthermia-induced seizures” value [15] was “Neither CBG nor CBGV affected thresholds”. For the same compound, the acetylcholine-induced contractions (human bladder) was “reduce acetylcholine-induced contractions”, the “adverse effects monitored by blood testing” value [16] was “no adverse effects” and the “ranked potency of detrusor contraction inhibition” value (mouse bladder) was “CBG=THCV>CBD>CBDV, but not CBC”.

In the case of `CCCCCc1cc(O)c(C/C=C(\C)CCC=C(C)C)c(O)c1C(=O)O` [CBGA, cannabigerolic acid], the “time of peak brain concentrations” value [10] is given as 45 min, the “infection of human epithelial cells by pseudovirus” value [8] is given as “prevented infection” and the “potency against SOCE (blocking CRAC currents)” value [17] is given as “dose-dependent high potency”. The “entry of live SARS-CoV-2 into cells” value (live SARS-CoV-2) was “prevented entry”, the “effect on hyperthermia-induced seizures” value [15] was “more effective for seizures triggered by a febrile event than CBD” and the “affinity for the spike protein” value (SARS-CoV-2 spike protein [9]) was “micromolar affinity”. For the same compound, the “adverse effects monitored by blood testing” value [16] was “no adverse effects” and the oral absorption ([16]; with or without food) was “orally absorbed significantly better than CBG”.

For `CCCc1cc(O)c(C/C=C(\C)CCC=C(C)C)c(O)c1` [CBGV, cannabigerovarin], the “time of peak brain concentrations” value [10] is listed as 30 min and the “effect on hyperthermia-induced seizures” value [15] is listed as “Neither CBG nor CBGV affected thresholds”.

In the case of `CCCc1cc(O)c(C/C=C(\C)CCC=C(C)C)c(O)c1C(=O)O` [CBGVA, cannabigerovarinic acid], the “time of peak brain concentrations” value [10] is listed as 15 min.

In the case of `Nc1ncnc2c1ncn2[C@@H]1O[C@H](CO)C[C@H]1O` [Cordycepin, 3′-deoxyadenosine], the binding affinity [18] is listed as −180.5 and the binding affinity (SARS-CoV-2 spike protein [19]) is listed as −145.3.

In the case of `C=CCc1ccc(O)c(OC)c1` [Eugenol], the “concentration inhibiting melanoma growth” value (melanoma) is given as 0.5 to 2.5 µmol⁻¹, the “concentration leading to translocation of phospho-Ser15-p53 into mitochondria” value (mast cells) is given as 700 µmol/L and the concentration inducing apoptosis (HL-60 leukemia cells) is given as 40 µmol/L.

In the case of `CC(C)=CCC/C(C)=C/CO` [Geraniol], the bioavailability [20] is given as 92%.

In the case of `C[C@H]1CC[C@@H](C(C)(C)O)CC2=C1CC[C@@H]2C` [Guaiol], the “Shelf Life” value [21] is listed as ≥ 12 month(s).

In the case of `CCCCCc1cc(OC)c(C/C=C(\C)CCC=C(C)C)c(OC(=O)CCN2CCOCC2)c1` [HUM-234, Monomethoxycannabigeroyl-β-morpholinoproprionate], the obesity ([22]; mice fed a high-fat diet (HFD)) is given as “prevents obesity” and the TNF-α levels ([22]; mouse, in vivo) is given as “increases TNF-α at higher doses”.

For `C[C@@H](O)CC(=O)O` [R-BHB], the “inhibition of insulin-mediated phosphorylation of protein kinase B” value (protein kinase B) is listed as 50%.

For `CCCCCc1cc(O)c(C/C=C(\C)CC/C=C(\C)CCC=C(C)C)c(O)c1` [Sesquicannabigerol], the “affinity at CB2R higher than CBG” value (CB2R [23]; relative to CBG) is listed as 5 fold.

In the case of `CCCCCc1cc(OC(=O)CCC(=O)O)c2c(c1)OC(C)(C)[C@@H]1CCC(C)=C[C@@H]21` [THC-HS, THC-hemisuccinate], the bioavailability ([14]; rectal) is listed as 70-80%.

In the case of `CCCc1cc(O)c2c(c1)OC(C)(C)[C@@H]1CCC(C)=C[C@@H]21` [THCV, tetrahydrocannabivarin], the “time of peak brain concentrations” value [10] is given as 30 min, the “effect on hyperthermia-induced seizures” value [15] is given as “resulted in seizures at lower temperature thresholds” and the “ranked potency of detrusor contraction inhibition” value (mouse bladder) is given as “CBG=THCV>CBD>CBDV, but not CBC”.

In the case of `O=C(O[C@@H]1Cc2c(O)cc(O)cc2O[C@@H]1c1cc(O)c(O)c(O)c1)c1cc(O)c(O)c(O)c1` [epigallocatechin β-gallate], the “concentrations at which binding to human CBR was shown” value (human CBR) is given as “high μM concentrations”.

For `CC(C)=CCC[C@@H](C)[C@@H]1CC[C@]2(C)C3=C(CC[C@@]12C)[C@@]1(C)CC[C@H](O)C(C)(C)[C@@H]1CC3` [euphol], the IC50 ([24]; read-out: IC50) is given as 0.315 µM.

In the case of `C=C[C@H](O)C#CC#CC/C=C\CCCCCCC` [falcarinol], the Ki (CB1R; read-out: Ki value, CB1R) is listed as < 1 µM.

In the case of `C=C(C)[C@H]1CC=C(C)CC1` [limonene], the increase in motility (mice) is listed as 35.25%.

For `C=CC(C)(O)CCC=C(C)C` (centres unmarked) [linalool], the reduction in motility (mice) is listed as 73%.

In the case of `O=C(/C=C/C=C/c1ccc2c(c1)OCO2)N1CCCCC1` [piperine, Piperine], the “increase in oral bioavailability of CBD” value [25] is given as ~2.5 fold.

In the case of `COC(=O)[C@]1(C)CC[C@]2(C)CC[C@]3(C)C4=CC=C5C(=CC(=O)C(O)=C5C)[C@]4(C)CC[C@@]3(C)[C@@H]2C1` [pristimerin], the IC50 [24] is listed as 0.093 µM.

For `C=C1CC/C=C(\C)CC[C@@H]2[C@@H]1CC2(C)C` [β-caryophyllene], the Ki (CB2R [23]; CB2R, full agonist) is given as 0.155 µM, the Tmax ([26]; one single oral administration) is given as > 1 h and the maximal onset ([26]; orally administered) is given as 1 h. For the same compound, the “anti-inflammatory and analgesic effects” value (CB2R [27]) was “strong anti-inflammatory and analgesic effects in wild-type mice but not in CB2 receptor knockout mice”.

For `CC[C@H](CC[C@@H](C)[C@H]1CC[C@H]2[C@@H]3CC=C4C[C@@H](O)CC[C@]4(C)[C@H]3CC[C@]12C)C(C)C` [β-sitosterol], the “reduction of chronic edema” value [28] is listed as 41% and the “reduction of topical inflammation” value [28] is listed as 65%.

In the case of pinene, the increase in motility (mice) is given as 13.77%.
